# Laboratory results from patent US20150072988A1, “USE OF N-(4-((3-(2-AMINO-4-PYRIMIDINYL)-2-PYRIDINYL)OXY)PHENYL)-4-(4-METHYL-2-THIENYL)-1-PHTHALAZINAMINE IN COMBINATION WITH HISTONE DEACETYLASE INHIBITORS FOR TREATMENT OF CANCER” (THE JOHNS HOPKINS UNIVERSITY, priority 2012, published 2015).
# Tested on: phospho-histone H3
# Assay: Immunoblotting of phospho-histone H3 in prostate cells
# Format: cell-based
# Details: single agent treatment
# Procedure: Prostate cancer cell lines (DU-145, LNCaP, PC3) were obtained from ATCC. Cells were grown in RPMI-1640 (Invitrogen) with 10% Fetal Bovine Serum (FBS) (Gemini) and maintained in a […] humidified incubator supplemented with 5% CO2. Sodium salt of VPA (Sigma-Aldrich) was prepared in RPMI at a 1M stock on the day of treatment of the cells. Vorinostat (SAHA) (AtonPharma) and AMG 900 (Amgen) were maintained in 10 mM DMSO stock solutions at −20° C. and diluted in RPMI upon use. For combination studies, compounds were administered concomitantly.
# Western blotting was performed as described previously. Kachhap S K, Rosmus N, et al. “Downregulation of homologous recombination repair genes by HDAC inhibition in prostate cancer is mediated through the E2F1 transcription factor”, PLoS One 2010;5:e11208. Loading volumes equalized to 20 μg of total protein were used. Primary antibodies were diluted 1:1000 in blocking solution with the exceptions of vinculin and phosphorylated aurora A-C, which were diluted 1:4000 and 1:500, respectively. Conjugated secondary antibodies were diluted 1:4000 in blocking solution. For blocking solution 5% milk in TBST (100 mM Tris-HCl ph 7.4, 0.1% Tween20, 150 mM NaCl in H2O) was used for p21, cyclin B1, vinculin, cleaved PARP and all secondary antibodies; 5% BSA in TBST was used for the primary antibodies phosphorylated aurora, and phosphorylated and total H3. Blots were developed on film and scanned into a computer at 300 dots per inch (dpi). Densitometric analyses were performed using ImageJ (Research Services Branch, National Institute of Mental Health).
row,SMILES,expression of phospho-histone H3 (pH3)
1,CCCC(CCC)C(=O)O [valproic acid],decreased
2,"Cc1csc(-c2nnc(Nc3ccc(Oc4ncccc4-c4ccnc(N)n4)cc3)c3ccccc23)c1 [AMG 900, N-(4-((3-(2-amino-4-pyrimidinyl)-2-pyridinyl)oxy)phenyl)-4-(4-methyl-2-thienyl)-1-phthalazinamine]",decreased
3,O=C(CCCCCCC(=O)Nc1ccccc1)NO [vorinostat],decreased
